# Assay results taken from US8735388B2, “Heterocyclic compounds with affinity to muscarinic receptors” (Abbvie B. V. A., priority 2007, dated 2014).
# Where two headings read alike, the source gives them in different places.
# Tests used:
# [1] = molecular target: T1, Muscarine M4 (GPCR-A-MA-ACH M4) (Homo sapiens, UniProt P08173); assay: Muscarine M4 receptor binding, 3H-4DAMP; conditions: human M4, CHO cells, ligand 0.2 nM, 60 min/22° C.; for Ki: read-out: RB Musc. M4 3H-DAMP pKi (converted)
# T1 construct: expressed in transfected cells; host or cells: CHO cells
# T1 sequence (P08173 1-479): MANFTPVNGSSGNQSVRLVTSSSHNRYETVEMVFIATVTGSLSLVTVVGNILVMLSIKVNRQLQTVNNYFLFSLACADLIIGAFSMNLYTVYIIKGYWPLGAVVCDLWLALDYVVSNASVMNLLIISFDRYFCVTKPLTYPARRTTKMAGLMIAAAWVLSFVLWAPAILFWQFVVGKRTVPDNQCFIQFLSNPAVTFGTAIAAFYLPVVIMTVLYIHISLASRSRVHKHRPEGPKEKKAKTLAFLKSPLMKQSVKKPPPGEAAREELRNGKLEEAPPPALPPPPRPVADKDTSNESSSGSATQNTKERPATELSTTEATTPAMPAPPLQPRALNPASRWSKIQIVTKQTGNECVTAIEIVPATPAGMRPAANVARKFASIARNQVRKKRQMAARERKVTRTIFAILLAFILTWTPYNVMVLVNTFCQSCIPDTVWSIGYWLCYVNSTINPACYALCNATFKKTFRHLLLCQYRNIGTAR
# Description: (§1) Compounds were dissolved in DMSO (10 mM) and diluted in assay buffer to test concentration. Prime testing was at 10 μM; for actives (PI, percent inhibition with respect to total and non-specific binding >40%) testing was continued at lower concentrations in 10-fold dilutions: 1 μM, 0.1 μM, etc.
# (§2) Following incubation of compound with the receptor preparation (from ‘Tissue’) and the Ligand at the time and temperature indicated, the receptor preparations were rapidly filtered under vacuum through glass fibre filters; the filters were washed extensively with an ice-cold buffer using a harvester. Bound radioactivity was measured by scintillation counting using a liquid scintillation cocktail.
# (§3) Results were expressed as percentage of total Ligand binding and that of Non Specific Binding, per concentration of Compound tested (duplicates); from the concentration—displacement curves IC50 values were determined by non-linear regression analysis using Hill equation curve fitting. The inhibition constants (Ki) were calculated from the Cheng-Prushoff equation Ki=IC50/(1+L/Kd), where L is the concentration of radioligand in the assay, and Kd the affinity of the radioligand for the receptor. Results were expressed as pKi's, means±SD of at least 2 separate experiments; i.e. outliers (outside+/−1 std of mean) and discrepancies were excluded.
# [2] = molecular target: T1, Muscarine M4 (GPCR-A-MA-ACH M4); assay: Muscarine M4 receptor binding, 3H-Oxotremorine
# Description: as §1, §2, §3
# [3] = molecular target: T1, Muscarine M4 (GPCR-A-MA-ACH M4); assay: Muscarine M4 cell-based functional assay (CHO cells, Ca2+ - Aequorin luminescence)
# Description: Compounds were dissolved in DMSO (10 mM) and diluted in assay buffer to test concentration. Prime testing was at 1 μM; for actives in antagonist mode (PI, percent inhibition with respect to reference agonist and blank>30%) as well as actives in agonist mode (PS, percent stimulation with respect to reference agonist and blank>30%) testing was continued at lower concentrations in 10-fold dilutions: 0.1 μM, 0.01 μM, etc.
# Cells were incubated with compound and the response indicated was measured.
# The results are expressed as a percent of reference agonist values and blanks in the presence of the test compound, percent stimulation for agonist mode; for the antagonist mode (test compound in the presence of reference agonist) as percent inhibition. The EC50 values (concentration causing a half-maximal stimulation of control values), IC50 values (concentration causing a half-maximal inhibition of control values) were determined by non-linear regression analysis of the concentration-response curves using Hill equation curve fitting.
# [4] = molecular target: T2, Muscarine M1 (GPCR-A-MA-ACH M1) (Homo sapiens, UniProt P11229); assay: Muscarine M1 receptor binding, 3H-Pirenzepine; conditions: human M1, CHO cells, ligand 2 nM, 60 min/22° C.; for Ki: read-out: RB Musc. M1 3H-Pirenzepine pKi (converted)
# T2 construct: expressed in transfected cells; host or cells: CHO cells
# T2 sequence (P11229 1-460): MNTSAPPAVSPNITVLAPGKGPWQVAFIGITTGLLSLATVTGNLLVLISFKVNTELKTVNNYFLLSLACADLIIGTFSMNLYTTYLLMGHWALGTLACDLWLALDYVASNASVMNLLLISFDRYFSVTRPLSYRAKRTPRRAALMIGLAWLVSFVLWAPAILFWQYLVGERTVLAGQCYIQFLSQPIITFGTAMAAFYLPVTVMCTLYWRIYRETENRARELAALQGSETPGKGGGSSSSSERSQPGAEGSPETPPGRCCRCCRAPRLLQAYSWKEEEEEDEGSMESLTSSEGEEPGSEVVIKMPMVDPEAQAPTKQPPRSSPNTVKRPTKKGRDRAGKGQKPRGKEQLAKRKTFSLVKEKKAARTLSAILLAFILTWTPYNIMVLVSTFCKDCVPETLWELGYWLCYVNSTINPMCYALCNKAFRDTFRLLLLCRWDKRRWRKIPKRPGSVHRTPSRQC
# Description: as §1, §2, §3
# [5] = molecular target: T2, Muscarine M1 (GPCR-A-MA-ACH M1); assay: Muscarine M1 cell-based functional assay (CHO cells, Ca2+ - FLIPR Fluorimetry); conditions: read-out: Cell funct. Musc. M1 Agonism pEC50 (converted)
# [6] = human M4, CHO cells, receptor binding, ligand 6 nM, 30 min/25° C., read-out: RB Musc. M4 3H-Oxotremorine pKi (converted)
# [7] = human M4, CHO cells, agonist mode, reference agonist oxotremorine, read-out: Cell funct. Musc. M4 Agonism pEC50 (converted)
# [8] = human M1, CHO cells, agonist mode, reference agonist acetylcholine
SMILES,Ki [1],"Ki [2, 6]","EC50 [3, 7]",Ki [4],"EC50 [5, 8]",further results
"C=CCCOc1c[nH]nc1C1=CCCN(C)C1 [Compound 33D, 3-(4-But-3-enyloxy-1H-pyrazol-3-yl)-1,2,5,6-tetrahydro-1-methylpyridine]",1000 nM,1580 nM,1260 nM,2510 nM,100 nM,–
"CCCCCCCOc1c[nH]nc1C1=CCCN(C)C1 [Compound 33E, 3-(4-Heptyloxy-1H-pyrazol-3-yl)-1,2,5,6-tetrahydro-1-methylpyridine]",316 nM,158 nM,631 nM,1000 nM,200 nM,–
"CCCCCCSc1c[nH]nc1C1=CCCN(C)C1 [Compound 22H, 3-(4-Hexylsulfanyl-1H-pyrazol-3-yl)-1,2,5,6-tetrahydro-1-methylpyridine]",63.1 nM,126 nM,10 nM,200 nM,126 nM,–
CCCC(=O)Nc1c[nH]nc1C1=CCCN(C)C1 [Compound 41],> 10000 nM,> 10000 nM,> 10000 nM,> 10000 nM,–,–
"Ic1c[nH]nc1[C@@H]1CN2CCC[C@H]1C2 [Compound 59, endo-6-(4-iodo-1H-pyrazol-3-yl)-1-azabicyclo[3.2.1]octane]",100 nM,–,–,1000 nM,–,Ki [2]: 200 nM; EC50 [3]: > 10000 nM; EC50 [5]: 79.4 nM
"CCCCC#Cc1c[nH]nc1C1=CCCN(C)C1 [Compound 45A, 3-(4-Hex-1-ynyl-1H-Pyrazol-3-yl)-1,2,5,6-tetrahydro-1-methylpyridine]",631 nM,398 nM,794 nM,1580 nM,126 nM,–
"CCCCCCCC#Cc1c[nH]nc1C1=CCCN(C)C1 [Compound 45C, 3-(4-Non-1-ynyl-1H-pyrazol-3-yl)-1,2,5,6-tetrahydro-1-methylpyridine]",794 nM,501 nM,2000 nM,794 nM,> 1000 nM,–
"CCCCOc1c[nH]nc1C1=CCCN(C)C1 [Compound 33C, 3-(4-Butyloxy-1H-pyrazol-3-yl)-1,2,5,6-tetrahydro-1-methylpyridine]",316 nM,1580 nM,1260 nM,1260 nM,126 nM,–
"FC(F)=CCCSc1c[nH]nc1C1CN2CCC1CC2 (stereo not drawn) [Compound 49I, 3-[4-(4,4-Difluoro-but-3-enylsulfanyl)-1H-pyrazol-3-yl]-1-azabicyclo[2.2.2]octane]",63.1 nM,–,–,316 nM,–,Ki [2]: 12.6 nM; EC50 [3]: 20 nM; EC50 [5]: 3.16 nM
"CCCCC=Cc1conc1C1=CCCN(C)C1 [Compound 68A, 3-(4-Hex-1-enyl-isoxazol-3-yl)-1,2,5,6-tetrahydro-1-methylpyridine]",251 nM,631 nM,794 nM,1580 nM,200 nM,–
"CCCCCCSc1conc1C1=CCCN(C)C1 [Compound 66B, 3-(4-Hexylsulfanyl-isoxazol-3-yl)-1,2,5,6-tetrahydro-1-methylpyridine]",100 nM,158 nM,501 nM,631 nM,–,–
"CN1CCC=C(c2n[nH]cc2OCCCc2ccccc2)C1 [Compound 33A, 3-[4-(3-Phenyl-propoxy)-1H-pyrazol-3-yl]-1,2,5,6-tetrahydro-1-methylpyridine]",251 nM,501 nM,794 nM,1260 nM,126 nM,–
"CCCCCSc1c[nH]nc1[C@@H]1CN2CCC[C@H]1C2 [Compound 60A, Endo-6-(4-pentylsulfanyl-1H-Pyrazol-3-yl)-1-azabicyclo[3.2.1]octane]",251 nM,63.1 nM,> 10000 nM,398 nM,–,–
"O=C1CCCN1CC#CCN1CCCC1 [oxotremorine, reference compound]",–,–,–,–,–,EC50 [3]: 40 nM
"CN1CCC=C(c2n[nH]cc2C=Cc2cccc(F)c2)C1 [Compound 47B, 3-{-4-2[-(3-Fluor-Phenyl)-vinyl]-1H-pyrazol-3-yl}-1,2,5,6-tetrahydro-1-methylpyridine]",–,–,–,–,–,"RB Musc. M4 3H-DAMP pKi [1]: 6.5; RB Musc. M4 3H-Oxotremorine pKi ([2]; human M4, CHO cells, receptor binding, ligand 6 nM, 30 min/25° C.): 6.8; Cell funct. Musc. M4 Agonism pEC50 ([3]; human M4, CHO cells, agonist mode, reference agonist oxotremorine): <5.0; RB Musc. M1 3H-Pirenzepine pKi [4]: 6.1"
"C=CCSc1c[nH]nc1C1=CCCN(C)C1 [Compound 22Q, 3-(4-Allylsulfanyl-1H-pyrazol-3-yl)-1,2,5,6-tetrahydro-1-methylpyridine]",501 nM,126 nM,> 10000 nM,794 nM,–,–
"CCCCNc1c[nH]nc1C1=CCCN(C)C1 [Compound 42, Butyl-[3-(1-Methyl-1,2,5,6-tetrahydro-pyridin-3-yl)-1H-pyrazol-4-yl]-amine]",5010 nM,3980 nM,> 10000 nM,7940 nM,–,–
"CCCCSc1conc1C1=CCCN(C)C1 [Compound 66A, 3-(4-Butylsulfanyl-isoxazol-3-yl)-1,2,5,6-tetrahydro-1-methylpyridine]",39.8 nM,79.4 nM,> 10000 nM,251 nM,–,–
"CN1CCC=C(c2n[nH]cc2SCc2ccco2)C1 [Compound 22M, 3-[4-(Furan-2-yl-methylsulfanyl)-1H-pyrazol-3-yl]-1,2,5,6-tetrahydro-1-methylpyridine]",398 nM,251 nM,> 10000 nM,501 nM,–,–
"CCCCSc1cc(C2=CCCN(C)C2)n[nH]1 [Compound 26, 3-(5-Butylsulfanyl-1H-pyrazol-3-yl)-1,2,5,6-tetrahydro-1-methylpyridine]",200 nM,251 nM,> 10000 nM,158 nM,–,–
"CCCCc1c[nH]nc1C1=CCCN(C)C1 [Compound 16, 3-(4-Butyl-1H-pyrazol-3-yl)-1,2,5,6-tetrahydro-1-methylpyridine]",–,–,> 10000 nM,–,–,–
"CN1CCC=C(c2n[nH]cc2SCCC#N)C1 [Compound 22R, 3-[3-(1-Methyl-1,2,5,6-tetrahydro-pyridin-3-yl)-1H-pyrazol-4-ylsulfanyl]-propionitrile]",3980 nM,2000 nM,> 10000 nM,12600 nM,–,–
"CN1CCC=C(c2n[nH]cc2SCc2ccccc2)C1 [Compound 22N, 3-(4-Benzylsulfanyl-1H-pyrazol-3-yl)-1,2,5,6-tetrahydro-1-methylpyridine]",251 nM,251 nM,> 10000 nM,398 nM,–,–
